Data: patent US20200055871A1, “ACTIVATORS OF THE RETINOIC ACID INDUCIBLE GENE "RIG-I" PATHWAY AND METHODS OF USE THEREOF” (Kineta Immuno-Oncology LLC, priority 2018, published 2020)
Like-named read-outs stand apart in the source and are kept apart here.

Tests used:
[1] = test system: RIG-I deficient CT26 RIG-I−/− cells; assay: CXCL10 secretion by RIG-I deficient CT26 RIG-I−/− cells (ELISA); type: cell-based, murine; conditions: compound 5 to 20 μM, 24 h
Method: (§1) The CT26 murine colon carcinoma cell line (ATCC) was used to evaluate the induction of CXCL10 secretion. CXCL10 is an important chemokine in tumor immune biology that recruits tumor-specific T cells to the tumor. To confirm that compound-mediated CXCL10 production was RIG-I specific, RIG-1 deficient CT2-RIG-I−/−cells were generated by Kineta Inc. using CRISPR technology.
(§2) CT26 cells were seeded at a density of 1×10^4 cells per well on a 96-well tissue culture plate in 100 μL of cell culture and cells were incubated at 37° C. and 5% CO2 for 24 hr. Next, CT26 cells were treated with compounds at the indicated concentrations. CXCL10 was quantified by ELISA from supernatants taken 24 h after compound stimulation by use of the CXCL10 Duo Set ELISA kit (Cat #DY466, R&D, Minneapolis, Minn., USA) according to the manufacturer's instructions.
(§3) CXCL10 secretion by CT26 cells in response to compounds (in an amount of 5 to 20 μM) of the present disclosure is shown in Table 8. The compound-induced CXCL10 production was RIG-I dependent, since none of the compounds mediated CXCL10 secretion in RIG-I deficient CT26 RIG-I−/−cells (about 0 pg/mL of CXCL10, or below the level of quantitation). The compounds (10 μM, *20 μM, **5 μM) are indicated in the table as follows: “≠” indicates less than 100 pg/mL; “+” indicates 100-199 pg/mL; “++” indicates 200-399 pg/mL; “+++” indicates 400-799 pg/mL; “++++” indicates 800 to 1599 pg/mL; “+++++” indicates greater than or equal to 1600 pg/ml.

[2] = test system: IRF3 signaling pathway in THP1-Lucia™ ISG cells; assay: THP1-Lucia ISG reporter assay: induction of IRF3-dependent gene expression (secreted luciferase); type: cell-based, human; conditions: Homo sapiens, THP1-Lucia ISG, read-out: fold increase of IRF3-dependent luciferase activity over background, THP1 ISG
Method: The compounds were evaluated in the THP1-Lucia™ ISG (interferon stimulated genes) reporter assay to determine if the compounds activate the IRF3 signaling pathway. The THP1-Lucia™ cells (InvivoGen) express the secreted luciferase (Lucia) reporter gene under the control of an IRF-inducible promoter. The reporter cell line was developed from human monocytic leukemia THP-1 cells.
The promoter was comprised of five IFN-stimulated response elements (ISRE) fused to an ISG54 minimal promoter which is unresponsive to NF-kB or AP-1 pathways. […] The IRF3-deficient THP1-Lucia™ ISG IRF3−/−reporter cell line was generated by CRISPR technology from the parent THP1-Lucia™ ISG reporter cell line.
THP1-Lucia™ ISG cells and IRF3-deficient THP1-Lucia™ ISG IRF3−/−cells were differentiated with PMA (100 ng/ml) and stimulated with compounds at the indicated concentrations (5 to 20 μM), positive control, or not treated (background). Luciferase secretion was quantified using the QUANTI-Luc luciferase assay system (InvivoGen) 18 h after stimulation. Data are shown as fold increase luciferase activity over background in Table 7 and represent the IRF3-dependent ISG54 promoter activity by the THP1-Lucia™ ISG cells in response to compounds. […] The fold increase of compounds (10 μM, *20 μM, **5 μM) induced IRF3 dependent luciferase activity is indicated as follows: “≠” indicates less than 2.4 fold increase; “+” indicates a 2.4-4.9 fold increase; “++” indicates a 5-9.9 fold increase; “+++” indicates a 10-19 fold increase; “++++” indicates a 20-39 fold increase; “+++++” indicates greater than or equal to 40 fold increase.

[3] = test system: murine CT26 colon carcinoma cells; assay: RIG-I dependent CXCL10 secretion by CT26 cells (ELISA); type: cell-based; conditions: supernatant 24 h after stimulation
Method: as §1, §2, §3

[4] = 10 μM compound, PMA-differentiated cells, 18 h after stimulation

| Compound | CXCL10 secretion, CT26 RIG-I−/− [1] | fold induction at 10 µM [2, 4] | CXCL10 secretion, CT26 ([3]; 10 μM compound) | CXCL10 secretion, CT26 ([3]; 20 μM compound (*)) | fold induction at 20 µM ([2]; 20 μM compound (*), PMA-differentiated cells, 18 h after stimulation) | fold induction at 10 µM ([2]; 18 h) | fold induction at 20 µM ([2]; 18 h) |
| --- | --- | --- | --- | --- | --- | --- | --- |
| O=C(Nc1nc2ccc3scnc3c2s1)c1cccc([N+](=O)[O-])c1 [Example 9, N-{3,10-dithia-5,12-diazatricyclo [7.3.0.0^2,^6]dodeca-1,4,6,8,11-pentaen-4-yl}-3-nitrobenzamide] | − | 2.4 to 4.9 | +++ (400-799 pg/mL) |  |  |  |  |
| O=C(Nc1nc2ccc3scnc3c2s1)c1cc2ccsc2cc1OCCN1CCOCC1 [Example 42, N-{3,10-dithia-5,12-diazatricyclo[7.3.0.0^2,^6]dodeca-1,4,6,8,11-pentaen-4-yl}-6-[2-(morpholin-4-yl)ethoxy]-1-benzothiophene-5-carboxamide] | − | < 2.4 |  | +* (100-199 pg/mL) |  |  |  |
| O=C(Nc1nc2ccc3scnc3c2s1)c1cc2ccccc2cc1OCCCN1CCOCC1 [Example 1, N-{3,10-dithia-5,12-diazatricyclo[7.3.0.0^2,6]dodeca-1,4,6,8,11-pentaen-4-yl}-3-[3-(morpholin-4-yl)propoxy]naphthalene-2-carboxamide] | − | 2.4 to 4.9 | ++++ (800 to 1599 pg/mL) |  |  |  |  |
| O=C(Nc1nc2ccc3scnc3c2s1)c1cc2c(cc1OCCCCN1CCOCC1)OCO2 [Example 41, N-{3,10-dithia-5,12-diazatricyclo[7.3.0.0^2,^6]dodeca-1,4,6,8,11-pentaen-4-yl}-6-[4-(morpholin-4-yl)butoxy]-2H-1,3-benzodioxole-5-carboxamide] | − | 2.4 to 4.9 | + (100-199 pg/mL) |  |  |  |  |
| COc1nc2c(ccc3nc(NC(=O)c4cc5ccccc5cc4OCCCCN4CCOCC4)sc32)s1 [Example 32, N-{11-methoxy-3,10-dithia-5,12-diazatricyclo[7.3.0.0^2,^6]dodeca-1,4,6,8,11-pentaen-4-yl}-3-[4-(morpholin-4-yl)butoxy]naphthalene-2-carboxamide] | − | 10 to 19 | ++ (200-399 pg/mL) |  |  |  |  |
| O=C(Nc1nc2ccc3scnc3c2s1)c1cc2ccccc2cc1OCCC1CCOCC1 [Example 27, N-{3,10-dithia-5,12-diazatricyclo[7.3.0.0^2,^6]dodeca-1,4,6,8,11-pentaen-4-yl}-3-[2-(oxan-4-yl)ethoxy]naphthalene-2-carboxamide] | − |  | ++ (200-399 pg/mL) |  | 5 to 9.9 |  |  |
| O=C(Nc1nc2ccc3scnc3c2s1)c1cc2ccccc2cc1OCCCCN1CCOCC1 [Example 28, N-{3,10-dithia-5,12-diazatricyclo[7.3.0.0^2,^6]dodeca-1,4,6,8,11-pentaen-4-yl}-3-[4-(morpholin-4-yl)butoxy]naphthalene-2-carboxamide] | − | 2.4 to 4.9 | ++ (200-399 pg/mL) |  |  |  |  |
| Cn1c(C(=O)Nc2cc3ccc4scnc4c3s2)cc2ccccc21 [Example 71, N-{5,12-dithia-3-azatricyclo[7.3.0.0^2,^6]dodeca-1,3,6,8,10-pentaen-11-yl}-1-methyl-1H-indole-2-carboxamide] |  |  | + (100-199 pg/mL) |  |  |  |  |
| O=C(Nc1nc2ccc3scnc3c2s1)c1ccc2sccc2c1 [Example 14, N-{3,10-dithia-5,12-diazatricyclo[7.3.0.0^2,^6]dodeca-1,4,6,8,11-pentaen-4-yl}-1-benzothiophene-5-carboxamide] | − | 10 to 19 |  | ++* (200-399 pg/mL) |  |  |  |
| COc1nc2c(ccc3nc(NC(=O)c4cc5ccccc5cc4OCCN4CCCCC4)sc32)s1 [Example 30, N-{11-methoxy-3,10-dithia-5,12-diazatricyclo[7.3.0.0^2,^6]dodeca-1,4,6,8,11-pentaen-4-yl}-3-[2-(piperidin-1-yl)ethoxy]naphthalene-2-carboxamide] | − | 10 to 19 | +++ (400-799 pg/mL) |  |  |  |  |
| COc1cc(OC)cc(C(=O)Nc2nc3ccc4sc(C)nc4c3s2)c1 [Example 2, 3,5-dimethoxy-N-{11-methyl-3,10-dithia-5,12-diazatricyclo[7.3.0.0^2,^6]dodeca-1,4,6,8,11-pentaen-4-yl}benzamide] | − | 5 to 9.9 |  | ++++* (800 to 1599 pg/mL) |  |  |  |
| O=C(Nc1nc2ccc3scnc3c2s1)c1ccc(Cl)c(C(F)(F)F)c1 [Example 7, 4-chloro-N-{3,10-dithia-5,12-diazatricyclo[7.3.0.0^2,^6]dodeca-1,4,6,8,11-pentaen-4-yl}-3-(trifluoromethyl)benzamide] | − | 2.4 to 4.9 | ++++ (800 to 1599 pg/mL) |  |  |  |  |
| O=C(Nc1nc2ccc3scnc3c2s1)c1ccc2c(c1)OCO2 [Example 4, N-{3,10-dithia-5,12-diazatricyclo[7.3.0.0^2,^6]dodeca-1,4,6,8,11-pentaen-4-yl}-2H-1,3-benzodioxole-5-carboxamide] | − |  | +++ (400-799 pg/mL) |  |  | 10 to 19 |  |
| O=C(Nc1nc2ccc3scnc3c2s1)c1cc2ccccc2cc1OCCN1CCCCC1 [Example 25, N-{3,10-dithia-5,12-diazatricyclo[7.3.0.0^2,^6]dodeca-1,4,6,8,11-pentaen-4-yl}-3-[2-(piperidin-1-yl)ethoxy]naphthalene-2-carboxamide] | − | 2.4 to 4.9 | ++ (200-399 pg/mL) |  |  |  |  |
| CCc1nc2c(ccc3nc(NC(=O)c4ccc5ccccc5c4)sc32)s1 [Example 18, N-{11-ethyl-3,10-dithia-5,12-diazatricyclo[7.3.0.0^2,^6]dodeca-1,4,6,8,11-pentaen-4-yl}naphthalene-2-carboxamide] | − | 20 to 39 |  | +* (100-199 pg/mL) |  |  |  |
| O=C(Nc1nc2ccc3scnc3c2s1)c1ccc2c(c1)CCCC2 [Example 13, N-{3,10-dithia-5,12-diazatricyclo[7.3.0.0^2,^6]dodeca-1,4,6,8,11-pentaen-4-yl}-5,6,7,8-tetrahydronaphthalene-2-carboxamide] | − |  | +++ (400-799 pg/mL) |  |  |  | 5 to 9.9 |
| O=C(Nc1nc2ccc3scnc3c2s1)c1cc2ccccc2cc1OCCN1CCOCC1 [Example 24, N-{3,10-dithia-5,12-diazatricyclo[7.3.0.0^2,^6]dodeca-1,4,6,8,11-pentaen-4-yl}-3-[2-(morpholin-4-yl)ethoxy]naphthalene-2-carboxamide] | − | 20 to 39 | +++ (400-799 pg/mL) |  |  |  |  |
| COc1nc2c(ccc3nc(NC(=O)c4ccc5ccccc5c4)sc32)s1 [Example 22, N-{11-methoxy-3,10-dithia-5,12-diazatricyclo[7.3.0.0^2,^6]dodeca-1,4,6,8,11-pentaen-4-yl}naphthalene-2-carboxamide] | − | 20 to 39 | ++ (200-399 pg/mL) |  |  |  |  |
